Data published in US4536397A, “Antibiotics, neoviridogriseins, and their method of production” (Sanraku-Ocean Co., Ltd., priority 1983, dated 1985).
Converted amounts (≈) assume the structure as drawn. Starred links: 1 amine or outer side, 2 acyl side, 3 side chain; linkers in the order of their positions; H or OH if unused. Positions of bridges follow the written chain, without caps; N, C: chain ends. Non-standard residues stand in square brackets, D forms with d. Residues, ends and D or L forms follow the SMILES beside them. ξ: configuration not given here. *: point of attachment. NMeLeu(3ξ-Me) = CN[C@H](C(=O)O)C(C)C(C)C; X1 = CC(C)C(C)C(C(=O)[*:2])N(C)[*:1]; Picolinoyl(3-OH) = O=C(c1ncccc1O)*; NMePhg = CN[CH](C(=O)O)c1ccccc1; Thr(3ξ) = CC(O)[C@H](N)C(=O)O; Hyp = O=C(O)[CH]1C[CH](O)CN1; Abu = CC[CH](N)C(=O)O; Sar = CNCC(=O)O

What was measured:
[1] = test system: Staphylococcus aureus; test: MIC, tube dilution method; type: cell-based; details: BHI broth
[2] = test system: Staphylococcus sp.; test: MIC, tube dilution method; type: cell-based; details: BHI broth
[3] = test system: Diplococcus pneumoniac type 1; test: MIC, tube dilution method; type: cell-based, Diplococcus pneumoniae; details: BHI broth containing 10% horse blood
[4] = test system: Streptococcus pyogenes; test: MIC, tube dilution method; type: cell-based; details: BHI broth containing 10% horse blood
[5] = test system: Sarcina lutea; test: MIC, tube dilution method (incl. synergism with griseoviridin); type: cell-based; details: Table 1; BHI broth
[6] = test system: Bacillus subtilis ATCC 6633; test: MIC, tube dilution method; type: cell-based; details: BHI broth
[7] = test system: Salmonella gallinanum; test: MIC, tube dilution method; type: cell-based; details: BHI broth
[8] = test system: Escherichia coli; test: MIC, tube dilution method; type: cell-based; details: BHI broth
[9] = test system: Pseudeomonas aeruginosa; test: MIC, tube dilution method; type: cell-based; details: BHI broth
[10] = test system: Proteus vulgaris; test: MIC, tube dilution method; type: cell-based; details: BHI broth
[11] = test system: Candida albicans; test: MIC, tube dilution method; type: cell-based; details: malt extract-yeast extract medium
[12] = Solubility in solvents; type: physicochemical; details: for solubility in organic solvents: methanol, ethanol, propanols, n-butanol, dioxane, acetates, ketones, benzene, toluene, chlorinated solvents, DMF, DMSO

Structure (SMILES)	MIC ([1]; strain 209P)	MIC ([1]; strain (BX-1633)(PC)r)	MIC ([1]; strain (EM)r)	MIC ([1]; strain (EM, CM, SM, PC, TC)r)	MIC ([1]; strain (EM, OM)r)	MIC ([1]; strain (PC, EM, NM)r)	MIC ([1]; strain (PC, TC, EM, LM)r 1)	MIC ([1]; strain (PC, TC, EM, LM)r 2)	MIC ([1]; strain (SM, STH)r)	MIC ([1]; strain (STH)r)	MIC ([1]; strain (TC, CP, PC)r)	MIC ([1]; strain (TC, EM, LM, CP)r)	MIC ([1]; strain Russell(PC)r)	MIC ([1]; strain Smith)	MIC ([2]; Staphylococcus sp. (PC)r)	MIC ([2]; Staphylococcus sp.)	MIC [3]	MIC [4]	MIC [5]	MIC [6]	further results
CC[C@@H]1NC(=O)[C@H](C(C)C(C)C)N(C)C(=O)CN(C)C(=O)[C@H]2CCCN2C(=O)[C@@H](CC(C)C)NC(=O)[C@@H](NC(=O)c2ncccc2O)C(C)OC(=O)[C@H](c2ccccc2)N(C)C1=O (stereo partly drawn) [NV I, neoviridogrisein I] ({Picolinoyl(3-OH)}-[Thr(3ξ)][dL][dP][Sar][NMeLeu(3ξ-Me)][Abu][NMePhg]; ester 1-C)	0.2 µg/mL (≈ 0.228 µM)	0.4 µg/mL (≈ 0.456 µM)	0.4 µg/mL (≈ 0.456 µM)	0.4 µg/mL (≈ 0.456 µM)	0.8 µg/mL (≈ 0.912 µM)	0.8 µg/mL (≈ 0.912 µM)	6.25 µg/mL (≈ 7.13 µM)	6.25 µg/mL (≈ 7.13 µM)	0.4 µg/mL (≈ 0.456 µM)	0.8 µg/mL (≈ 0.912 µM)	0.2 µg/mL (≈ 0.228 µM)	6.25 µg/mL (≈ 7.13 µM)	0.2 µg/mL (≈ 0.228 µM)	0.2 µg/mL (≈ 0.228 µM)	0.8 µg/mL (≈ 0.912 µM)	0.8 µg/mL (≈ 0.912 µM)	0.2 µg/mL (≈ 0.228 µM)	0.4 µg/mL (≈ 0.456 µM)	0.2 µg/mL	0.4 µg/mL (≈ 0.456 µM)	MIC [7]: > 25 µg/mL; MIC [8]: > 25 µg/mL; MIC [9]: > 25 µg/mL; MIC [10]: > 25 µg/mL; MIC [11]: > 25 µg/mL; solubility in organic solvents [12]: soluble; solubility in petroleum ether and hexane [12]: practically insoluble; solubility in water and ethyl ether [12]: hardly soluble
CCC1NC(=O)C(C(C)C(C)C)N(C)C(=O)CN(C)C(=O)C2CC(O)CN2C(=O)C(CC(C)C)NC(=O)C(NC(=O)c2ncccc2O)C(C)OC(=O)C(c2ccccc2)N(C)C1=O (centres unmarked) [NV III, neoviridogrisein III] ({Picolinoyl(3-OH)}-TL[Hyp][Sar][X1][Abu][NMePhg]; ester 1-C; configuration not given here)	0.2 µg/mL (≈ 0.224 µM)	0.4 µg/mL (≈ 0.448 µM)	0.4 µg/mL (≈ 0.448 µM)	0.4 µg/mL (≈ 0.448 µM)	0.8 µg/mL (≈ 0.896 µM)	0.4 µg/mL (≈ 0.448 µM)	6.25 µg/mL (≈ 7 µM)	6.25 µg/mL (≈ 7 µM)	0.2 µg/mL (≈ 0.224 µM)	1.6 µg/mL (≈ 1.79 µM)	0.4 µg/mL (≈ 0.448 µM)	6.25 µg/mL (≈ 7 µM)	0.4 µg/mL (≈ 0.448 µM)	0.2 µg/mL (≈ 0.224 µM)	0.8 µg/mL (≈ 0.896 µM)	0.8 µg/mL (≈ 0.896 µM)	0.2 µg/mL (≈ 0.224 µM)	0.4 µg/mL (≈ 0.448 µM)	0.4 µg/mL	0.8 µg/mL (≈ 0.896 µM)	MIC [7]: > 25 µg/mL; MIC [8]: > 25 µg/mL; MIC [9]: > 25 µg/mL; MIC [10]: > 25 µg/mL; MIC [11]: > 25 µg/mL; solubility in organic solvents [12]: soluble; solubility in petroleum ether and hexane [12]: practically insoluble; solubility in water and ethyl ether [12]: hardly soluble
